Measured values reported in patent US10550102B2, “Indane and indoline derivatives and the use thereof as soluble guanylate cyclase activators” (NOVARTIS AG, priority 2014, dated 2020).

The compounds below were run against soluble guanylate cyclase (human GUCYA3 and GUCYB3) overexpressed in CHO cells (Homo sapiens (Human), UniProt Q02153) (assay: CHO cellular assay (cGMP production, Cisbio cGMP HTRF kit)). Conditions: CHO GUCY clone 8E10, cGMP production, assay buffer with 1 mM IBMX and 20 uM ODQ, 1 h room temperature; minimum quantification limit 0.5 nM (listed 0.5 nM means ≤0.5 nM).
Assay type: cell-based
In short: (§1)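 EC50 was derived by 4-parameter sigmoidal fit of cGMP levels, read by HTRF against a standard curve. Compounds were applied for 1 h at room temperature, in buffer with 20 uM ODQ, 1 mM IBMX and 0.1% BSA (0.5% DMSO final). The cells were a stable CHO-K1 line (clone 8E10) overexpressing human GUCYA3 and GUCYB3, seeded at 3000/well.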

Chain of soluble guanylate cyclase (human GUCYA3 and GUCYB3) overexpressed in CHO cells (Homo sapiens (Human), UniProt Q02153) (Q02108 whole entry partner): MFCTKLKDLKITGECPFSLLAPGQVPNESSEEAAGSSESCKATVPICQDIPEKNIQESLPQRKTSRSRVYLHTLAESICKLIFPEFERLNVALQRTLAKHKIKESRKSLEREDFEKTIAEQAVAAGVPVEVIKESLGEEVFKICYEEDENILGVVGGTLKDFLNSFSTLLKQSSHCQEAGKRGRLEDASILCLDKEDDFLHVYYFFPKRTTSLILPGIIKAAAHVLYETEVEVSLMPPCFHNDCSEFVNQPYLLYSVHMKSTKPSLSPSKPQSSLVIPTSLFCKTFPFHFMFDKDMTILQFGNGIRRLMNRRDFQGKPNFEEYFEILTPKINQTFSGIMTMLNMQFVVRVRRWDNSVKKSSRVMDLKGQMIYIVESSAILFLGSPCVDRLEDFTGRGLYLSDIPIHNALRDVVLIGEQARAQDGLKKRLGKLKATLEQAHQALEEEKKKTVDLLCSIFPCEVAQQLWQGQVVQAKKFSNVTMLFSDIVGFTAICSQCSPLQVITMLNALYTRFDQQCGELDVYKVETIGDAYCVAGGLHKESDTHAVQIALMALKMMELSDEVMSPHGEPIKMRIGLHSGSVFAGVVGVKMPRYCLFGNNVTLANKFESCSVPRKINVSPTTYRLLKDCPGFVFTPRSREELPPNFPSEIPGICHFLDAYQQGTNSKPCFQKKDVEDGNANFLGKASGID
Chain of soluble guanylate cyclase (human GUCYA3 and GUCYB3) overexpressed in CHO cells (Homo sapiens (Human), UniProt Q02153) (Q02153 whole entry): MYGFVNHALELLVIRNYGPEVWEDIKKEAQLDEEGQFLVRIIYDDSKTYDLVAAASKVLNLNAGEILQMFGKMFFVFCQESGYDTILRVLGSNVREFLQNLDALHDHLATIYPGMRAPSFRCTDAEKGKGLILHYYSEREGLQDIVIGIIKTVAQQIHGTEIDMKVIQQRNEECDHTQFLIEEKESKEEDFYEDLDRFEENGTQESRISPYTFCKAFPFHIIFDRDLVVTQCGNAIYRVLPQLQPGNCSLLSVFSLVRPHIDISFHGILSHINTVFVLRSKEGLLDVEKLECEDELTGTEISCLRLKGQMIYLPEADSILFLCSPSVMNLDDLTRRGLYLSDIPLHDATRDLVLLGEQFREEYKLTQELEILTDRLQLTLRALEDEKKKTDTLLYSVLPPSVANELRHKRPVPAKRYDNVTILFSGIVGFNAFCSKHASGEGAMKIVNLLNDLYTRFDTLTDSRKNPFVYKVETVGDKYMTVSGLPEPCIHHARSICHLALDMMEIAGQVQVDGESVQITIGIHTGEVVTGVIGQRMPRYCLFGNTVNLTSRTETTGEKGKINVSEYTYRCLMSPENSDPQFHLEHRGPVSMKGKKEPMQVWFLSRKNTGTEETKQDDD

Compound | EC50 [nM]
CCc1cc(CN2CC(C)c3cccc(-c4cccc(-n5ncc(C(=O)O)c5CC)n4)c32)ccc1C1CCN(C(=O)[C@H](C)O)CC1 (single isomer, unassigned) [Example 17b] | ≤ 0.5
CCc1cc(O[C@H]2CCc3cccc(-c4cccc(-n5ncc(C(=O)O)c5CC)n4)c32)ccc1C1CCN(C(=O)C(C)CCO)CC1 (single isomer, unassigned) [Example 32b] | ≤ 0.5
CCc1cc(CN2CC(C)c3cccc(-c4cccc(-n5ncc(C(=O)O)c5CC)n4)c32)ccc1C1CCN(C(=O)C2CC2)CC1 (single isomer, unassigned; (-)) [(−)-20-1, (−)-1-(6-(1-(4-(1-(Cyclopropanecarbonyl)piperidin-4-yl)-3-ethylbenzyl)-3-methylindolin-7-yl)pyridin-2-yl)-5-ethyl-1H-pyrazole-4-carboxylic acid] | ≤ 0.5
CCc1cc(CN2CC(C)c3cccc(-c4cccc(-n5ncc(C(=O)O)c5C)n4)c32)ccc1C1CCN(C(=O)C2CC2)CC1 (single isomer, unassigned; (-)) [(−)-20-3, (−)-1-(6-(1-(4-(1-(Cyclopropanecarbonyl)piperidin-4-yl)-3-ethylbenzyl)-3-methylindolin-7-yl)pyridin-2-yl)-5-methyl-1H-pyrazole-4-carboxylic acid] | ≤ 0.5
Cc1cc(C2CCN(C(=O)C3CC3)CC2)ccc1OC1CCc2cccc(-c3cccc(-n4ncc(C(=O)O)c4C(F)(F)F)n3)c21 (single isomer, unassigned; (-)) [Example 3b] | 6.9
O=C(O)c1cnn(-c2cccc(-c3cccc4c3C(Oc3ccc5c(c3)CCN(Cc3ccccn3)C5)CC4)n2)c1C(F)(F)F (single isomer, unassigned; (-)) [Example 4b, (−)-1-(6-(3-((2-(Pyridin-2-ylmethyl)-1,2,3,4-tetrahydroisoquinolin-6-yl)oxy)-2,3-dihydro-1H-inden-4-yl)pyridin-2-yl)-6-(trifluoromethyl)-1H-pyrazole-4-carboxylic Acid] | 116
CCc1cc(CN2CC(C)c3cccc(-c4cccc(-n5ncc(C(=O)O)c5C(F)(F)F)n4)c32)ccc1C1CCN(C(=O)C2CC2)CC1 (single isomer, unassigned; (-)) [Example 19b, (−)-1-(6-(1-(4-(1-(Cyclopropanecarbonyl)piperidin-4-yl)-3-ethylbenzyl)-3-methylindolin-7-yl)pyridin-2-yl)-5-(trifluoromethyl)-1H-pyrazole-4-carboxylic Acid] | ≤ 0.5
CCc1cc(NC2CCc3cccc(-c4cccc(-n5ncc(C(=O)O)c5CC)n4)c32)ccc1C1CCN(C(=O)[C@H](C)O)CC1 (single isomer, unassigned; (-)) [Example 48b] | 11
CCC[C@H](O)C(=O)N1CCC(c2ccc(NC3CCc4cccc(-c5cccc(-n6ncc(C(=O)O)c6CC)n5)c43)cc2CC)CC1 (single isomer, unassigned; (-)) [Example 49b] | 20
O=C(O)c1cnn(-c2cccc(-c3cccc4c3C(Oc3ccc(C5CCN(C(=O)C6CC6)CC5)cc3C(F)(F)F)CC4)n2)c1C(F)(F)F (single isomer, unassigned; enantiomer-1) [61. b). (enantiomer-1), (+)- or (−)-1-(6-(3-(4-(1-(Cyclopropanecarbonyl)piperidin-4-yl)-2-(trifluoromethyl)phenoxy)-2,3-dihydro-1H-inden-4-yl)pyridin-2-yl)-5-(trifluoromethyl)-1H-pyrazole-4-carboxylic acid] | 15
O=C(O)c1cnn(-c2cccc(-c3cccc4c3C(Oc3ccc(C5CCN(C(=O)C6CC6)CC5)cc3C(F)(F)F)CC4)n2)c1C(F)(F)F (single isomer, unassigned; enantiomer-2) [61. b). (enantiomer-2), (−)- or (+)-1-(6-(3-(4-(1-(cyclopropanecarbonyl)piperidin-4-yl)-2-(trifluoromethyl)phenoxy)-2,3-dihydro-1H-inden-4-yl)pyridin-2-yl)-5-(trifluoromethyl)-1H-pyrazole-4-carboxylic acid] | 2
Cc1cc(C2CCN(C(=O)C3CC3)CC2)ccc1CN1CCc2cccc(-c3cccc(-n4ncc(C(=O)O)c4C)n3)c21 [Example 21-1, 1-(6-(1-(4-(1-(Cyclopropanecarbonyl)piperidin-4-yl)-2-methylbenzyl)indolin-7-yl)pyridin-2-yl)-5-methyl-1H-pyrazole-4-carboxylic acid] | ≤ 0.5
(−)-Ethyl-1-(6-(3-((3-ethyl-4-(1-(isopropoxycarbonyl)piperidin-4-yl)phenyl)amino)-2,3-dihydro-1H-inden-4-yl)pyridin-2-yl)-1H-pyrazole-4-carboxylic Acid [Example 51b] | 3

The compounds below were run against soluble guanylate cyclase (human GUCYA3 and GUCYB3) overexpressed in CHO cells (Homo sapiens (Human), UniProt Q02108+Q02153) in the same assay as above. Conditions: CHO GUCY clone 8E10, cGMP production, assay buffer with 1 mM IBMX and 20 uM ODQ, 1 h room temperature; minimum quantification limit 0.5 nM (listed 0.5 nM means ≤0.5 nM); read-out: EC50.
Assay type: cell-based
In short: as §1

Chain of soluble guanylate cyclase (human GUCYA3 and GUCYB3) overexpressed in CHO cells (Homo sapiens (Human), UniProt Q02108+Q02153) (Q02108 whole entry partner): as the sequence (Q02108 whole entry partner) above
Chain of soluble guanylate cyclase (human GUCYA3 and GUCYB3) overexpressed in CHO cells (Homo sapiens (Human), UniProt Q02108+Q02153) (Q02153 whole entry): as the sequence (Q02153 whole entry) above

Compound | EC50 [nM]
CCOC(=O)N1CCC(c2ccc(NC3CCc4cccc(-c5cccc(-n6ncc(C(=O)O)c6C)n5)c43)c(C)c2)CC1 (centres unmarked) [Example 52-4] | ≤ 0.5
COCCOC(=O)N1CCC(c2ccc(NC3CCc4cccc(-c5cccc(-n6ncc(C(=O)O)c6C)n5)c43)c(C)c2)CC1 (centres unmarked) [Example 52-5] | 1
C=C(C)OC(=O)N1CCC(c2ccc(NC3CCc4cccc(-c5cccc(-n6ncc(C(=O)O)c6C)n5)c43)c(C)c2)CC1 (centres unmarked) [Example 52-6, 5-Methyl-1-(6-(3-((2-methyl-4-(1-((prop-1-en-2-yloxy)carbonyl)piperidin-4-yl)phenyl)amino)-2,3-dihydro-1H-inden-4-yl)pyridin-2-yl)-1H-pyrazole-4-carboxylic acid] | 1.4
CCc1cc(O[C@H]2CCc3cccc(-c4cccc(-n5ncc(C(=O)O)c5CC)n4)c32)ccc1C1CCN(C(=O)OCc2ccccc2)CC1 [Example 64-1, (S)-1-(6-(3-(4-(1-((Benzyloxy)carbonyl)pipendin-4-yl)-3-ethylphenoxy)-2,3-dihydro-1H-inden-4-yl)pyridin-2-yl)-5-ethyl-1H-pyrazole-4-carboxylic acid] | 2
CCc1cc(O[C@H]2CCc3cccc(-c4cccc(-n5ncc(C(=O)O)c5CC)n4)c32)ccc1C1CCN(C(=O)OCC2CC2)CC1 [Example 64-6, (S)-1-(6-(3-(4-(1-((Cyclopropylmethoxy)carbonyl)piperidin-4-yl)-3-ethylphenoxy)-2,3-dihydro-1H-inden-4-yl)pyridin-2-yl)-5-ethyl-1H-pyrazole-4-carboxylic acid] | 1.4
CCc1cc(O[C@H]2CCc3cccc(-c4cccc(-n5ncc(C(=O)O)c5CC)n4)c32)ccc1C1CCN(S(C)(=O)=O)CC1 [Example 64-8, (S)-5-Ethyl-1-(6-(3-(3-ethyl-4-(1-(methylsulfonyl)piperidin-4-yl)phenoxy)-2,3-dihydro-1H-inden-4-yl)pyridin-2-yl)-1H-pyrazole-4-carboxylic acid] | ≤ 0.5

Same assay, conditions: EC50 (nM)

Compound | EC50 [nM]
CCc1cc(O[C@H]2CCc3cccc(-c4cccc(-n5ncc(C(=O)O)c5CC)n4)c32)ccc1C1CCN(C(=O)OCC(C)C)CC1 [Example 64-2, (S)-5-Ethyl-1-(6-(3-(3-ethyl-4-(1-(isobutoxycarbonyl)piperidin-4-yl)phenoxy)-2,3-dihydro-1H-inden-4-yl)pyridin-2-yl)-1H-pyrazole-4-carboxylic acid] | 3
CCc1cc(O[C@H]2CCc3cccc(-c4cccc(-n5ncc(C(=O)O)c5CC)n4)c32)ccc1C1CCN(C(=O)OC(C)C)CC1 [Example 64-3, (S)-5-Ethyl-1-(6-(3-(3-ethyl-4-(1-(isopropoxycarbonyl)piperidin-4-yl)phenoxy)-2,3-dihydro-1H-inden-4-yl)pyridin-2-yl)-1H-pyrazole-4-carboxylic acid] | 1
CCCOC(=O)N1CCC(c2ccc(O[C@H]3CCc4cccc(-c5cccc(-n6ncc(C(=O)O)c6CC)n5)c43)cc2CC)CC1 [Example 64-4, (S)-5-Ethyl-1-(6-(3-(3-ethyl-4-(1-(propoxycarbonyl)piperidin-4-yl)phenoxy)-2,3-dihydro-1H-inden-4-yl)pyridin-2-yl)-1H-pyrazole-4-carboxylic acid] | ≤ 0.5
C=CCOC(=O)N1CCC(c2ccc(O[C@H]3CCc4cccc(-c5cccc(-n6ncc(C(=O)O)c6CC)n5)c43)cc2CC)CC1 [Example 64-5, (S)-1-(6-(3-(4-(1-((Allyloxy)carbonyl)piperidin-4-yl)-3-ethylphenoxy)-2,3-dihydro-1H-inden-4-yl)pyridin-2-yl)-5-ethyl-1H-pyrazole-4-carboxylic acid] | ≤ 0.5
